The record followed here is patent US20240074442A1, “UVARIA GRANDIFLORA EXTRACT AS A BOTANICAL FUNGICIDE, PREPARATION METHOD THEREFOR, AND APPLICATION THEREOF” (HAINAN UNIVERSITY, priority 2021, published 2024).

Values after ≈ are worked out from the molar mass of the structure shown. Structures can show the parent of a compound that is named as a salt. Where two headings read alike, the source gives them in different places. Bounds are passed on as bounds.

One experiment has as its system Rhizoctonia solani. Put plainly: Mycelial growth rate method, in vitro fungicidal activity. In kind it is cell-based. The conditions noted are these: R.S.
Another experiment concerns Pyricularia oryzae. Put plainly: microbe, parasite or virus in culture. The class given is cell-based. The settings on record: for inhibition at 50 µg/mL: read-out: Inhibition rate (%).
The next experiment has as its system Fusarium graminearum. Put plainly: microbe, parasite or virus in culture. In kind it is cell-based. The conditions noted are these: for inhibition at 50 µg/mL: read-out: Inhibition rate (%).
The next experiment concerns Colletotrichum siamense. The experiment in a line: Mycelial growth rate method, in vitro fungicidal activity. The settings on record: C.S, 50 μg mL^−1; for inhibition at 50 µg/mL: Colletotrichum siamense. The class given is cell-based.
For the next experiment, the system named is Colletotrichum musae. The experiment is described as above. The conditions noted are these: C.M. In kind it is cell-based.
For experiment [1], the system named is Colletotrichum gloeosporioiles. The description is as above. The class given is cell-based. The settings on record: C.G, 50 μg mL^−1; for inhibition at 50 µg/mL: Colletotrichum.
Another experiment concerns Colletotrichum capsici. The description is as above. In kind it is cell-based. The conditions noted are these: C.C, 50 μg mL^−1; for inhibition at 50 µg/mL: Colletotrichum truncatum.
Experiment [2] concerns Phytophthora capsici. The experiment is described as above. The class given is cell-based. The settings on record: P.C.
In a further experiment the test system is Gilbertella persicaria. The description is as above. The class given is cell-based. The settings on record: G.P.
For experiment [3], the system named is Neoscytalidium dimidiatum. The experiment is described as above. The settings on record: N.D, 50 μg mL^−1; for inhibition at 50 µg/mL: Neoscytalidium dimidiatum. In kind it is cell-based.
The test system of experiment [4] is Phytophthora capsici. The experiment in a line: Potted fungicidal activity test, protective effect. The settings on record: in vivo.
The test system of a further experiment is cowpea powdery mildew. The experiment in a line: Potted fungicidal activity test. The settings on record: in vivo.
Another experiment has as its system Cucumber downy mildew. The experiment in a line: Potted fungicidal activity test. The class given is in vivo, Pseudoperonospora cubensis. The settings on record: for Control effect (%): potted, cucumber downy mildew.
In another experiment the test system is potato late blight. The class given is in vivo. The settings on record: potted.
[5] abbreviates: Rhizoctonia solani, 50 μg mL^−1.
[6] abbreviates: Rhizoctonia solani, read-out: EC50.
[7] abbreviates: Colletotrichum musae, 50 μg mL^−1.
[8] abbreviates: Colletotrichum musae, read-out: EC50.
[9] abbreviates: Phytophthora capsici, 50 μg mL^−1.
[10] abbreviates: Phytophthora capsici, read-out: EC50.
The mark [11] stands for this setting: Gilbertella persicaria, 50 μg mL^−1.
[12] abbreviates: Gilbertella persicaria, read-out: EC50.

In general, EC50 refers to the concentration at which the effect is half-maximal. As for `CO/C=C(/C(=O)OC)c1ccccc1Oc1cc(Oc2ccccc2C#N)ncn1` [Azoxystrobin], the EC50 is less than 0.06 ± 0.12 µg/mL in the experiment with Rhizoctonia solani; 17.89 ± 0.14 µg/mL (≈ 44.3 µM) in the experiment on Pyricularia oryzae (P.O); 5.27 ± 0.21 µg/mL (≈ 13.1 µM) with Fusarium graminearum (F.G); 52.51 ± 0.42 µg/mL (≈ 130 µM) with Colletotrichum musae; 18.81 ± 0.31 µg/mL (≈ 46.6 µM) in the experiment with Phytophthora capsici [2]; 39.09 ± 0.05 µg/mL (≈ 96.9 µM) in the experiment with Gilbertella persicaria. Further, the “Inhibition rate (%)” value was 73.1% in the experiment with Rhizoctonia solani (50 μg mL^−1); 57.8% in the experiment on Pyricularia oryzae (P.O, 50 μg mL^−1); 65.7% in the experiment with Fusarium graminearum (F.G, 50 μg mL^−1); 60.9% in the experiment on Colletotrichum siamense; 51.2% with Colletotrichum musae (50 μg mL^−1); 52.5% in experiment [1]. The “Inhibition rate (%)” value was 41.27% in the experiment on Colletotrichum capsici, 69.9% with Phytophthora capsici [2] (50 μg mL^−1), 57.2% in the experiment with Gilbertella persicaria (50 μg mL^−1) and 51.2% in experiment [3].
With `COc1ccc2cc3[n+](cc2c1OC)CCc1cc2c(cc1-3)OCO2` [Berberine hydrochloride], in the experiment on Phytophthora capsici [4], the “Control effect (%)” value is on record as 80.0% and the “Disease index (±SD)” value is listed as 16.0 ± 2.0.
On to `COc1ccc(C(=CC(=O)N2CCOCC2)c2ccc(Cl)cc2)cc1OC` [Dimethomorph], for which, in the experiment with Phytophthora capsici [4], the “Control effect (%)” value amounted to 100.0% and the “Disease index (±SD)” value came out at 0.0 ± 0.0.
The inhibition is the drop in the measured response relative to a control, in per cent. With `COc1ccc2ccc(=O)oc2c1CC=C(C)C` [Osthole], the inhibition at 50 µg/mL with Rhizoctonia solani (setting [5]) was determined as 75.8%; in the experiment on Pyricularia oryzae (Pyricularia oryzae) it was 89.1%; in the experiment on Fusarium graminearum (Fusarium graminearum), 65.1%; in the experiment on Colletotrichum siamense, 37.7%; in the experiment on Colletotrichum musae (setting [7]), 93.3%; in experiment [1] it was 56.9%. Moreover, the inhibition at 50 µg/mL in the experiment with Colletotrichum capsici is 4.8%; with Phytophthora capsici [2] (setting [9]), 55.7%; in the experiment on Gilbertella persicaria (setting [11]) it was 94.3%; in experiment [3] it was 68.2%. In addition, the EC50 with Rhizoctonia solani (setting [6]) was 16 ± 1.39 µg/mL (≈ 65.6 µM); with Pyricularia oryzae (Pyricularia oryzae), 11.5 ± 0.42 µg/mL (≈ 47.2 µM); in the experiment on Fusarium graminearum (Fusarium graminearum) it was 21.4 ± 0.61 µg/mL (≈ 87.7 µM); in the experiment on Colletotrichum musae (setting [8]), 9.18 ± 0.33 µg/mL (≈ 37.6 µM); in the experiment on Phytophthora capsici [2] (setting [10]), 52.59 ± 0.27 µg/mL (≈ 215 µM); with Gilbertella persicaria (setting [12]) it was 11.4 ± 0.51 µg/mL (≈ 46.7 µM).
Turning to `CCCC1COC(Cn2cncn2)(c2ccc(Cl)cc2Cl)O1` (stereo not drawn) [Propiconazole], in the experiment on cowpea powdery mildew, the “Control effect (%)” value worked out at 100% and the “Disease index (±SD)” value is reported as 0 ± 0.0.
For `O=C(OC[C@]1(O)C(=O)C=C[C@H](OC(=O)c2ccccc2)[C@H]1O)c1ccccc1` [zeylenone], the inhibition at 50 µg/mL in the experiment on Rhizoctonia solani (setting [5]) came to 76.8%; in the experiment on Pyricularia oryzae (Pyricularia oryzae) it was 66.2%; in the experiment on Fusarium graminearum (Fusarium graminearum), 52.5%; in the experiment on Colletotrichum siamense, 43.5%; in the experiment on Colletotrichum musae (setting [7]) it was 84.3%; in experiment [1] it was 45%. The inhibition at 50 µg/mL in the experiment on Colletotrichum capsici came to 34.4%; with Phytophthora capsici [2] (setting [9]), 88.1%; with Gilbertella persicaria (setting [11]) it was 77.6%; in experiment [3] it was 43.8%. The EC50 came to 4.91 ± 0.12 µg/mL (≈ 12.8 µM) with Rhizoctonia solani (setting [6]); 21.38 ± 0.14 µg/mL (≈ 55.9 µM) in the experiment on Pyricularia oryzae (Pyricularia oryzae); 22.94 ± 0.11 µg/mL (≈ 60 µM) in the experiment on Fusarium graminearum (Fusarium graminearum); 3.37 µg/mL (≈ 8.81 µM) with Colletotrichum musae (setting [8]); 6.98 µg/mL (≈ 18.3 µM) with Phytophthora capsici [2] (setting [10]); 17.3 ± 2.29 µg/mL (≈ 45.2 µM) in the experiment with Gilbertella persicaria (setting [12]). Besides, in the experiment with Cucumber downy mildew (potted fungicidal activity test, in words), the “control effect on cucumber downy mildew compared with Cyazofamid” value is on record as “equivalent to that of the chemical fungicide Cyazofamid”. Moreover, the “Control effect (%)” value in the experiment on Cucumber downy mildew (6.25 μg mL^−1) was 25 ± 1.0%; with Cucumber downy mildew (12.5 μg mL^−1), 70 ± 3.0%; in the experiment with Cucumber downy mildew (25 μg mL^−1), 88 ± 1.7%; with Cucumber downy mildew (50 μg mL^−1), 99 ± 2.0%; in the experiment with potato late blight (6.25 μg mL^−1), 0 ± 0.0%; in the experiment on potato late blight (12.5 μg mL^−1) it was 0 ± 0.0%. Moreover, the entries for the “Control effect (%)” value with potato late blight (25 μg mL^−1) and in the experiment with potato late blight (50 μg mL^−1) were 0 ± 0.0% and 20 ± 2.0%, respectively.
